Measured values reported in patent publication US5451522A, “Genes encoding and method of expressing an enzyme: phthalyl amidase” (priority 1994, dated 1995).

Legend:
phthalyl amidase = biological target: T1, phthalyl amidase (Xanthobacter agilis, UniProt P0C2Y0); assay: Chiral and additional substrate selectivity of phthalyl amidase; assay type: biochemical; conditions: Table 13; for Relative Activity: III = 100, 0.009 mg (0.6 units) enzyme, 2.5 μmol substrate, buffer A, 30° C.
T1 construct: 42-aa signal peptide removed
T1 sequence (P0C2Y0 2-453): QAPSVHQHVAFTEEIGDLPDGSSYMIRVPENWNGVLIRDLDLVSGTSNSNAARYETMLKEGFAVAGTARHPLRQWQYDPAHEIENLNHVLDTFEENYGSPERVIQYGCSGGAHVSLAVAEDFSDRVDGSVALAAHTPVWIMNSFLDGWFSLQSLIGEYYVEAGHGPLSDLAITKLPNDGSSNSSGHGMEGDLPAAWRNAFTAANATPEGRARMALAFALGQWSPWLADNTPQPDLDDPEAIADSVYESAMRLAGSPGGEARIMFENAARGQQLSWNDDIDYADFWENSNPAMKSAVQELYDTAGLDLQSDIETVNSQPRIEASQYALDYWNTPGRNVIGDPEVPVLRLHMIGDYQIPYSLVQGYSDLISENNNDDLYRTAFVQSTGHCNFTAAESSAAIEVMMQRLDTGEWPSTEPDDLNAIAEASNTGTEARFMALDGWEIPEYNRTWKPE
Description: Several additional substrates were tested in a total volume of 1 ml. […] Reactions were stopped by the addition of methanol, and phthalic acid formation was monitored by HPLC.

Xanthobacter agilis = assay: Induction of phthalyl amidase in Xanthobacter agilis cultures; assay type: cell-based; conditions: for effect on wet weight cell mass (in words): Table 1 summary; for Total units/mg protein: cell-free lysate, chromogenic substrate II
Description: Three compounds at different concentrations were added to aerated cultures of the organism growing at 30° C. in Bac MI medium. The compounds tested were phthalate (PAA), phthalyl glycine (PAG), and PMBL. Cells of Xanthobacter agilis were grown with aeration for 24 hours. This vegetative culture was used to inoculate Bac MI medium (50 ml) containing different concentrations of the compounds to be tested. After 48 hours growth under standard conditions, cells were harvested by centrifugation and wet weight of the cells was determined. Crude cell extracts were prepared by lysozyme treatment of the cells as in Example 1. Suspensions were briefly sonicated to break up the viscous suspension. A cell-free supernatant was obtained by centrifugation of the suspension at 14,000 rpm for 15 minutes.
Enzyme activity in cell-free lysates was determined by monitoring conversion of the chromogenic substrate 4-(2'-carboxy-N-benzoyl)amino-2-carboxy-nitrobenzene (II) to 2-nitro-5-amino benzoic acid and phthalic acid, a reaction catalyzed by phthalyl amidase as shown below: [drawing 4]
The assay reaction mixture (1 ml) consisted of 0.3 μmol of the chromogenic substrate (II) and 0.001-0.5 μg of enzyme preparation in 50 mM potassium phosphate buffer, pH 8.0 (buffer A). The enzymatic reaction was conducted at 30° C. for 10 minutes and the appearance of product was monitored at 380 nm (or 430 nm). The amount of substrate hydrolyzed was calculated from a standard curve of the amine product.

substrate selectivity (in words) (phthalyl amidase) | Relative Activity (phthalyl amidase) | SMILES | effect on wet weight cell mass (in words) (Xanthobacter agilis) | also measured
twice | 200 | O=C(O)c1ccccc1C(=O)Nc1ccccc1 [Compound XXXI] | – | –
poor substrates | 1.3 | O=C(O)c1ccccc1C(=O)N[C@H](C(=O)O)c1ccccc1 [Compound XXX] | – | substrate selectivity (in words) (phthalyl amidase; listed as L isomer): extremely poor substrate
– | – | O=C(O)CNC(=O)c1ccccc1C(=O)O [PAG, phthalyl glycine] | increased | Units/g cells (Xanthobacter agilis; inducer addition 1 mg/ml): 1.04 Units/g cells; Total units/mg protein (Xanthobacter agilis; inducer addition 1 mg/ml): 0.35 µmol/min/mg; Units/g cells (Xanthobacter agilis; inducer addition 5 mg/ml): 9.4 Units/g cells; Cell weight (Xanthobacter agilis; inducer addition 5 mg/ml, 48 hours growth in Bac MI medium): 0.5 g/50 ml; Total units/mg protein (Xanthobacter agilis; inducer addition 5 mg/ml): 4.4 µmol/min/mg
– | – | O=C(O)CN1C(=O)C(NC(=O)c2ccccc2C(=O)O)C1CCc1ccco1 (centres unmarked) [PMBL] | no effect | –
poor substrates | 0.0 | O=C(Nc1ccccc1)c1ccccc1S(=O)(=O)O [XXXII] | – | –
